The results in this text go back to ChEMBL document CHEMBL1150372, “Synthesis, fluorine-18 radiolabeling, and in vitro characterization of 1-iodophenyl-N-methyl-N-fluoroalkyl-3-isoquinoline carboxamide derivatives as potential PET radioligands for imaging peripheral benzodiazepine receptor” (Bioorg Med Chem, 2008).

SMILES strings stand for the structures.

Data set [1] addresses Translocator protein (Rattus norvegicus, UniProt P16257). Put plainly: Displacement of [3H]PK11195 from PBR in rat kidney mitochondrial membrane. The data set is classed as cell membranes. On the technique in general: Displacement assays read how much labelled ligand stays bound in the presence of the test substance.
The nature of data set [2]: Lipophilicity, log P at pH 7.4. The data set is classed as physicochemical. The settings on record: buffer.
Data set [3] deals with Translocator protein (Homo sapiens, UniProt P30536). Put plainly: Binding affinity to human PBR.
Chain of Translocator protein (Homo sapiens, UniProt P30536) (P30536 whole entry): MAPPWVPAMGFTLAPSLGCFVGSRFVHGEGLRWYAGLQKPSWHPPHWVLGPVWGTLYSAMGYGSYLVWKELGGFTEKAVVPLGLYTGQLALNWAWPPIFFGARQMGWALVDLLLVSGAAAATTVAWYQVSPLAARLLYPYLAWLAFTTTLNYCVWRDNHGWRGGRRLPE

Chain of Translocator protein (Rattus norvegicus, UniProt P16257) (P16257 whole entry, looked up): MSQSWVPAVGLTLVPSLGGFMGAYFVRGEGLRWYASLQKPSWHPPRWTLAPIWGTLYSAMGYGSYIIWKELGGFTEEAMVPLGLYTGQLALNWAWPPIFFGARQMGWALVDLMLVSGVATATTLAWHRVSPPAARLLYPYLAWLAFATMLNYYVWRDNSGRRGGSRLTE

What is called IC50 is the concentration that gives 50% inhibition. A high value points to weaker potency. `CN(CCCF)C(=O)c1cc2ccccc2c(-c2ccccc2I)n1` displayed a half-inhibitory concentration (IC50) on Translocator protein [1] of 0.28 nM.
For `CN(CCCF)C(=O)c1cc2ccccc2c(-c2cccc(I)c2)n1`, the IC50 at Translocator protein [1] was determined as 1.4 nM.
On the same count and under the same terms, for `CN(CCCF)C(=O)c1cc2ccccc2c(-c2ccc(I)cc2)n1` the value was 66.5 nM.
The same measure, in the same setting: next, `CN(CCF)C(=O)c1cc2ccccc2c(-c2ccccc2I)n1`: 445 nM.
A word on the logD: it is lipophilicity at a set pH, counting ionised and neutral species. Read a low logD as a more hydrophilic compound. For `CN(CCC[18F])C(=O)c1cc2ccccc2c(-c2ccccc2I)n1`, the logD in data set [2] stood at 3.
In general, Kd refers to the free concentration of one partner at which half of the binding sites on the other are occupied at equilibrium, for simple one-to-one binding. Low values mean tighter binding, high ones weaker binding. `CCCCCCN(CCCCCC)C(=O)Cc1c(-c2ccc(F)cc2)[nH]c2ccccc12` had a dissociation constant (Kd) on Translocator protein [3] of 4 nM.
On the same count and under the same terms, next, `CN1C(=O)CN=C(c2ccc(Cl)cc2)c2cc(Cl)ccc21` [RO-54864]: 6 nM.
